Assay results published in patent publication US11701354B2, “Pyrazolo[3,4-b]pyrazine derivatives as SHP2 phosphatase inhibitors” (Relay Therapeutics, Inc., priority 2017, dated 2023).

The compounds below were run against SHP2 (Homo sapiens (Human), UniProt Q06124) (assay: SHP2 Allosteric Inhibition Assay (DiFMUP prompt fluorescence)). Conditions: 0.25 nM SHP2 activated with 0.5 μM peptide IRS1_pY1172(dPEG8)pY1222; substrate DiFMUP 100 μM.
Format: biochemical
From the text: SHP2 Allosteric Inhibition Assay.
SHP2 is allosterically activated through binding of bis-tyrosyl-phorphorylated peptides to its Src Homology 2 (SH2) domains. The latter activation step leads to the release of the auto-inhibitory interface of SHP2, which in turn renders the SHP2 protein tyrosine phosphatase (PTP) active and available for substrate recognition and reaction catalysis. The catalytic activity of SHP2 was monitored using the surrogate substrate DiFMUP in a prompt fluorescence assay format.
More specifically, the phosphatase reactions were performed at room temperature in 96-well black polystyrene plate, flat bottom, low flange, non-binding surface (Corning, Cat #3575) using a final reaction volume of 50 μl and the following assay buffer conditions: 60 mM HEPES, pH 7.2, 75 mM NaCl, 75 mM KCl, 1 mM EDTA 0.005% Brij-35, 5 mM DTT.
The inhibition of SHP2 by compounds of the disclosure (concentrations varying from 0.003-100 μM) was monitored using an assay in which 0.25 nM of SHP2 was incubated with of 0.5 μM of peptide IRSl_pY1172(dPEG8)pY1222 (sequence: H2N-LN(pY)IDLDLV(dPEG8)LST(pY)ASINFQK-amide). After 30-60 minutes incubation at 25° C. the surrogate substrate DiFMUP (Invitrogen, cat #D6567, 100 μM final) was added to the reaction and the conversion of DiFMUP to 6,8-difluoro-7-hydroxyl-4-methylcoumarin (DiFMU) was monitored continuously for 10 minutes with excitation at 355 nm and emission at 460 nm using a microplate reader (PolarStar, BMG). The inhibitor dose response curves were analyzed using normalized IC50 regression curve fitting with control based normalization.
Biochemical assay results for compounds of the disclosure are shown in examples and Table 1. In Table 1, A means an IC50 of less than 1 μM: B means an IC50 equal to 1 μM but less than 10 μM; and C means an IC50 of 10 μM or more.

Sequence of SHP2 (Q06124 whole entry): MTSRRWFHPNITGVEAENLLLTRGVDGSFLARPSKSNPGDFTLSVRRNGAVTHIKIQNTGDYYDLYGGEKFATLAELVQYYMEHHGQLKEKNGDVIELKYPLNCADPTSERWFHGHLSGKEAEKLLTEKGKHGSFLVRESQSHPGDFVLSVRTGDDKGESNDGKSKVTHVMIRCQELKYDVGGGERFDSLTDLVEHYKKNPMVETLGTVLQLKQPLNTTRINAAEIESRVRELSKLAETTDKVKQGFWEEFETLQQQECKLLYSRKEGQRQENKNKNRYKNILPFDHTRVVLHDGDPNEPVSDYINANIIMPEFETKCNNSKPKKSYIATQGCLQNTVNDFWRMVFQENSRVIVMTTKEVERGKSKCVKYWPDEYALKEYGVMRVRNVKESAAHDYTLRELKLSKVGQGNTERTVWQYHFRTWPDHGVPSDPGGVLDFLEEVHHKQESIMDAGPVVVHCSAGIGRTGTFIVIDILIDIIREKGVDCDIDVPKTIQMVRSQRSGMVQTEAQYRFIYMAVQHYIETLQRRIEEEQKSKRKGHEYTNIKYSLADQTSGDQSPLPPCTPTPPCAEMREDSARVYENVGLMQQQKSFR

**Q.** How did the IC50 turn out when `CN(c1cnc2c(-c3cccc(Cl)c3F)n[nH]c2n1)[C@H]1CCC[C@H]1N` (mixture of isomers) [Example 1] was run?
**A.** Its IC50 is 1000 to 10000 nM.

**Q.** How did the IC50 turn out when `N[C@@H]1CCCC[C@H]1Nc1cnc2c(-c3cccc(Cl)c3F)n[nH]c2n1` (mixture of isomers) [Example 5] was run?
**A.** The IC50 was 1000 to 10000 nM.

**Q.** How did the IC50 turn out when `NC[C@H]1CCCC[C@H]1Nc1cnc2c(-c3cccc(Cl)c3F)n[nH]c2n1` (mixture of isomers) [Example 13] was run?
**A.** The IC50 was under 1000 nM.

**Q.** With `NC[C@H]1CCCC[C@@H]1Nc1cnc2c(-c3cccc(Cl)c3F)n[nH]c2n1` (mixture of isomers) [Example 14] as the compound, how does the IC50 read?
**A.** Its IC50 is under 1000 nM.

**Q.** How did the IC50 turn out when `CN(c1cnc2c(-c3cccc(Cl)c3F)n[nH]c2n1)[C@H]1CCCC[C@@H]1N` (mixture of isomers) [Example 19] was run?
**A.** Its IC50 is under 1000 nM.

**Q.** With `CN(c1cnc2c(-c3cccc(Cl)c3F)n[nH]c2n1)[C@H]1CCCC[C@H]1N` (mixture of isomers) [Example 20] as the compound, how does the IC50 read?
**A.** The IC50 was under 1000 nM.

**Q.** With `N[C@@H]1CCCC[C@@H]1Nc1cnc2c(-c3cccc(Cl)c3F)n[nH]c2n1` (single isomer, unassigned) [Example 7] as the compound, how does the IC50 read?
**A.** The IC50 was 1000 to 10000 nM.

**Q.** How did the IC50 turn out when `CN(c1cnc2c(N3CCCc4ncccc43)n[nH]c2n1)[C@@H]1CCC[C@@H]1N` (single isomer, unassigned) [Example 8] was run?
**A.** The IC50 was 1000 to 10000 nM.

**Q.** `CN(c1cnc2c(N3CCCc4ncccc43)n[nH]c2n1)[C@@H]1COC[C@@H]1N` (single isomer, unassigned) [Example 10] was tested. Which IC50 did it give?
**A.** The IC50 was at least 10000 nM.

**Q.** How did the IC50 turn out when `CN(c1cnc2c(N3CCCc4ncccc43)n[nH]c2n1)[C@H]1COC[C@H]1N` (single isomer, unassigned) [Example 11] was run?
**A.** Its IC50 is at least 10000 nM.

**Q.** `NC[C@@H]1CCCC[C@@H]1Nc1cnc2c(-c3cccc(Cl)c3F)n[nH]c2n1` (single isomer, unassigned) [Example 15] was tested. Which IC50 did it give?
**A.** Its IC50 is under 1000 nM.

**Q.** Which IC50 does the source give for `NC[C@H]1CCCC[C@H]1Nc1cnc2c(-c3cccc(Cl)c3F)n[nH]c2n1` (single isomer, unassigned) [Example 17] here?
**A.** Its IC50 is 1000 to 10000 nM.

**Q.** With `NC[C@@H]1CCCC[C@H]1Nc1cnc2c(-c3cccc(Cl)c3F)n[nH]c2n1` (single isomer, unassigned) [Example 18] as the compound, how does the IC50 read?
**A.** Its IC50 is 1000 to 10000 nM.

**Q.** Which IC50 does the source give for `CN(c1cnc2c(-c3cccc(Cl)c3F)n[nH]c2n1)[C@H]1CCCC[C@@H]1N` (single isomer, unassigned) [Example 23] here?
**A.** Its IC50 is 1000 to 10000 nM.

**Q.** Which IC50 does the source give for `CN(c1cnc2c(-c3cccc(Cl)c3F)n[nH]c2n1)[C@@H]1CCCC[C@H]1N` (single isomer, unassigned) [Example 24] here?
**A.** Its IC50 is under 1000 nM.

**Q.** `CN(c1cnc2c(-c3cccc(Cl)c3F)n[nH]c2n1)[C@@H]1CCC[C@@H]1CN` (single isomer, unassigned) [Example 26] was tested. Which IC50 did it give?
**A.** The IC50 was under 1000 nM.

**Q.** With `CN(c1cnc2c(-c3cccc(Cl)c3F)n[nH]c2n1)[C@H]1CCC[C@@H]1CN` (single isomer, unassigned) [Example 27] as the compound, how does the IC50 read?
**A.** The IC50 was under 1000 nM.

**Q.** How did the IC50 turn out when `CN(c1cnc2c(-c3cccc(Cl)c3F)n[nH]c2n1)[C@H]1CCC[C@H]1CN` (single isomer, unassigned) [Example 28] was run?
**A.** Its IC50 is under 1000 nM.

**Q.** `CN(c1cnc2c(-c3cccc(Cl)c3F)n[nH]c2n1)[C@@H]1CCC[C@H]1CN` (single isomer, unassigned) [Example 29] was tested. Which IC50 did it give?
**A.** Its IC50 is under 1000 nM.

**Q.** How did the IC50 turn out when `CN(C[C@@H]1CCC[C@H]1N)c1cnc2c(N3CCCc4ncccc43)n[nH]c2n1` (single isomer, unassigned) [Example 31] was run?
**A.** The IC50 was at least 10000 nM.

**Q.** With `CN(C[C@H]1CCC[C@@H]1N)c1cnc2c(N3CCCc4ncccc43)n[nH]c2n1` (single isomer, unassigned) [Example 32] as the compound, how does the IC50 read?
**A.** Its IC50 is at least 10000 nM.

**Q.** How did the IC50 turn out when `CN(c1cnc2c(N3CCCc4ncccc43)n[nH]c2n1)[C@@H]1CCCC[C@@H]1N` (single isomer, unassigned) [Example 34] was run?
**A.** Its IC50 is 1000 to 10000 nM.

**Q.** With `CN(c1cnc2c(-c3cccc(Cl)c3F)n[nH]c2n1)[C@@H]1CCC[C@H]1N` [Example 2] as the compound, how does the IC50 read?
**A.** Its IC50 is under 1000 nM.

**Q.** For `CN(c1cnc2c(-c3cccc(Cl)c3F)n[nH]c2n1)[C@H]1CCC[C@@H]1N` [Example 3], which IC50 is on record?
**A.** The IC50 was under 1000 nM.

**Q.** `CN(c1cnc2c(-c3cccc(Cl)c3F)n[nH]c2n1)[C@@H]1CCC[C@@H]1N` [Example 4] was tested. Which IC50 did it give?
**A.** The IC50 was under 1000 nM.

**Q.** How did the IC50 turn out when `N[C@H]1CCCC[C@@H]1Nc1cnc2c(-c3cccc(Cl)c3F)n[nH]c2n1` [Example 6] was run?
**A.** Its IC50 is 1000 to 10000 nM.

**Q.** `CN(c1cnc2c(N3CCCc4ncccc43)n[nH]c2n1)[C@H]1CCC[C@H]1N` [Example 9] was tested. Which IC50 did it give?
**A.** The IC50 was at least 10000 nM.

**Q.** For `CN(c1cnc2c(-c3cccc(Cl)c3F)n[nH]c2n1)[C@@H]1CCCC[C@@H]1N` [Example 21], which IC50 is on record?
**A.** Its IC50 is under 1000 nM.

**Q.** `CN(C[C@H]1CC[C@H](N)C1)c1cnc2c(-c3cccc(Cl)c3F)n[nH]c2n1` [Example 25] was tested. Which IC50 did it give?
**A.** Its IC50 is under 1000 nM.

**Q.** `CN(c1cnc2c(-c3ccnc(Cl)c3F)n[nH]c2n1)[C@@H]1CCCC[C@@H]1N` [Example 30] was tested. Which IC50 did it give?
**A.** Its IC50 is under 1000 nM.

**Q.** Which IC50 does the source give for `CN(c1cnc2c(N3CCCc4ncccc43)n[nH]c2n1)[C@H]1CCCC[C@H]1N` [Example 33] here?
**A.** Its IC50 is at least 10000 nM.

**Q.** `CN(c1cnc2c(N3CCCc4ncccc43)n[nH]c2n1)[C@@H]1COCC[C@@H]1N` [Example 35] was tested. Which IC50 did it give?
**A.** The IC50 was at least 10000 nM.

**Q.** `CN(c1cnc2c(N3CCCc4ncccc43)n[nH]c2n1)[C@@H]1CCOC[C@@H]1N` [Example 36] was tested. Which IC50 did it give?
**A.** Its IC50 is 1000 to 10000 nM.

**Q.** Which IC50 does the source give for `CN(c1cnc2c(N3CCCc4ncccc43)n[nH]c2n1)[C@H]1CCOC[C@H]1N` [Example 37] here?
**A.** The IC50 was at least 10000 nM.

**Q.** Which IC50 does the source give for `CN(c1cnc2c(-c3cccc(Cl)c3F)n[nH]c2n1)[C@@H]1CCCC[C@H]1CN` [Example 38] here?
**A.** The IC50 was under 1000 nM.

**Q.** How did the IC50 turn out when `CN(c1cnc2c(-c3cccc(Cl)c3F)n[nH]c2n1)[C@H]1CCCC[C@H]1CN` [Example 39] was run?
**A.** The IC50 was under 1000 nM.

**Q.** How did the IC50 turn out when `CN(c1cnc2c(-c3cccc(Cl)c3F)n[nH]c2n1)[C@H]1CCCC[C@@H]1CN` [Example 40] was run?
**A.** Its IC50 is under 1000 nM.

**Q.** Which IC50 does the source give for `CN(c1cnc2c(-c3cccc(Cl)c3F)n[nH]c2n1)[C@@H]1CCCC[C@@H]1CN` [Example 41] here?
**A.** The IC50 was under 1000 nM.

**Q.** With `CN(c1cnc2c(Sc3ccccc3Cl)n[nH]c2n1)[C@@H]1CCCC[C@@H]1N` [Example 42] as the compound, how does the IC50 read?
**A.** The IC50 was under 1000 nM.

**Q.** For `CN(c1cnc2c(Sc3ccnc4[nH]ccc34)n[nH]c2n1)[C@@H]1CCCC[C@@H]1N` [Example 43], which IC50 is on record?
**A.** Its IC50 is under 1000 nM.

**Q.** How did the IC50 turn out when `CN(c1cnc2c(Oc3ccnc(Cl)c3Cl)n[nH]c2n1)[C@H]1CCCC[C@H]1N` [Example 44] was run?
**A.** The IC50 was 1000 to 10000 nM.

**Q.** `CN(c1cnc2c(Oc3ccnc(Cl)c3Cl)n[nH]c2n1)[C@@H]1CCCC[C@@H]1N` [Example 45] was tested. Which IC50 did it give?
**A.** The IC50 was under 1000 nM.

**Q.** `CN(c1cnc2c(N3CCc4c(C(N)=O)cccc43)n[nH]c2n1)[C@@H]1CCCC[C@@H]1N` [Example 46] was tested. Which IC50 did it give?
**A.** The IC50 was under 1000 nM.
